Data as given in DBAASP.
Values after ≈ are worked out from the molar mass of the structure shown. Values belong to the compound of their own block, whether it stands above or below them.

Tests used:
Test in all cases: ≥ marks a high value that may be exact or a test limit, other limits are often not marked, values filed in µg/mL are converted to µM
[1] = system: Klebsiella pneumoniae ATCC 10031
[2] = system: Aspergillus fumigatus ATCC MYA-1163
[3] = system: Fusarium oxysporum
[4] = system: Enterococcus faecalis ATCC 29212
[5] = system: Aspergillus ustus
[6] = system: Cryptococcus neoformans CM133
[7] = system: Fusarium solani AZN 6836
[8] = system: Rhizopus oryzae AZN 8892
[9] = system: Candida glabrata
[10] = system: Candida albicans ATCC 24433
[11] = system: Escherichia coli ATCC 25922
[12] = system: Staphylococcus aureus ATCC 25923
[13] = system: Candida krusei
[14] = system: Staphylococcus aureus ATCC 43300
[15] = system: Pseudomonas aeruginosa ATCC 27853
[16] = system: Salmonella enterica subsp. enterica serovar Enteritidis
[17] = system: Candida tropicalis
[18] = system: Aspergillus nidulans AZN 2867
[19] = system: Bacillus megaterium
[20] = system: Staphylococcus haemolyticus
[21] = system: Listeria monocytogenes
[22] = system: Escherichia coli 363
[23] = system: Klebsiella pneumoniae
[24] = system: Salmonella typhimurium
[25] = system: Staphylococcus epidermidis C621
[26] = system: Escherichia coli DC2
[27] = system: Corynebacterium xerosis C875
[28] = system: Escherichia coli UB1005
[29] = system: Legionella bozemanae ATCC 33217
[30] = system: Legionella pneumophila Paris
[31] = system: Legionella pneumophila ATCC 33155
[32] = system: Legionella pneumophila ATCC 33215
[33] = system: Legionella pneumophila Corby
[34] = system: Bacillus megaterium F04
[35] = system: Legionella longbeachae ATCC 33484
[36] = system: Legionella pneumophila ATCC 33216
[37] = system: Legionella micdadei ATCC 33218
[38] = system: Legionella oakridgensis ATCC 33761
[39] = system: Legionella pneumophila Lens
[40] = system: Legionella feeleii ATCC 35072
[41] = system: Salmonella enterica subsp. enterica serovar Typhimurium ATCC 700408
[42] = system: Listeria monocytogenes ATCC 19115
[43] = system: Staphylococcus aureus ATCC BAA-39
[44] = system: Salmonella enterica subsp. enterica serovar Typhimurium ATCC 14028
[45] = system: Klebsiella pneumoniae ATCC 13883

MIC [1]: ≥ 50 µM | MIC [2]: 6.25 µM (≈ 30.6 µg/mL) | MIC [3]: 6.25 µM (≈ 30.6 µg/mL) | MIC [4]: > 50 µM | MIC [5]: 25 µM (≈ 122 µg/mL) | MIC [6]: ≥ 50 µM | MIC [7]: 25 µM (≈ 122 µg/mL) | MIC [8]: ≥ 50 µM | MIC [9]: ≥ 50 µM | MIC [10]: ≥ 50 µM | MIC [11]: > 50 µM | MIC [12]: > 50 µM | MIC [13]: ≥ 50 µM | MIC [14]: > 50 µM | MIC [15]: > 50 µM | MIC [16]: ≥ 50 µM | MIC [17]: ≥ 50 µM | MIC [18]: ≥ 50 µM
Structure (SMILES): CC(C)C[C@@H]1NC(=O)[C@@H](NC(=O)[C@@H](N)CC(=O)O)CSSC[C@@H](C(=O)O)NC(=O)CNC(=O)[C@H](CCC(=O)O)NC(=O)[C@@H]2CSSC[C@@H]3NC(=O)[C@H](C(C)C)NC(=O)[C@H](CCCN=C(N)N)NC(=O)[C@H](CCCN=C(N)N)NC(=O)[C@@H]4CSSC[C@H](NC(=O)[C@H](CCCCN)NC(=O)[C@H](CC(C)C)NC(=O)[C@H](CO)NC(=O)[C@@H]5CCCN5C(=O)[C@H](CO)NC(=O)[C@H](CSSC[C@H](NC(=O)[C@@H]5CCCN5C(=O)CNC(=O)[C@H](CCCCN)NC(=O)[C@H](Cc5ccc(O)cc5)NC(=O)[C@H](CCCN=C(N)N)NC(=O)CNC(=O)[C@H](CO)NC1=O)C(=O)N[C@@H](C)C(=O)N[C@@H](C(C)C)C(=O)N[C@@H](Cc1c[nH]c5ccccc15)C(=O)N[C@@H](CC(=O)O)C(=O)N[C@@H](CC(N)=O)C(=O)N[C@@H](CCC(=O)O)C(=O)N[C@@H]([C@@H](C)O)C(=O)N4)NC(=O)[C@H](Cc1cnc[nH]1)NC(=O)CNC(=O)[C@H](CO)NC(=O)[C@H](CO)NC(=O)[C@H](CCCN=C(N)N)NC(=O)CNC(=O)[C@H](CCC(=O)O)NC(=O)[C@H](CCC(=O)O)NC(=O)[C@H](CCCCN)NC3=O)C(=O)N[C@@H](Cc1c[nH]c3ccccc13)C(=O)N2 [DCLSGRYKGPCAVWDNETCRRVCKEEGRSSGHCSPSLKCWCEGC]

MIC [19]: 0.4 µM (≈ 1.21 µg/mL) | MIC [21]: 0.4 µM (≈ 1.21 µg/mL) | MIC [22]: 3.1 µM (≈ 9.41 µg/mL) | MIC [23]: 12.5 µM (≈ 37.9 µg/mL) | MIC [24]: 3.1 µM (≈ 9.41 µg/mL)
Structure (SMILES): CC[C@H](C)[C@H](NC(=O)[C@H](CCSC)NC(=O)[C@H](CC(C)C)NC(=O)[C@H](CC(C)C)NC(=O)[C@@H](NC(=O)[C@H](Cc1c[nH]c2ccccc12)NC(=O)[C@H](CC(C)C)NC(=O)[C@H](Cc1c[nH]c2ccccc12)NC(=O)[C@@H](NC(=O)[C@H](CCCCN)NC(=O)[C@H](CO)NC(=O)[C@H](CCCNC(=N)N)NC(=O)[C@H](CC(C)C)NC(=O)CN)[C@@H](C)CC)C(C)C)C(=O)N[C@@H](Cc1c[nH]c2ccccc12)C(=O)N[C@@H](CCC(N)=O)C(=O)N[C@@H](CCC(=O)O)C(=O)N[C@@H](CO)C(=O)N[C@@H](CC(N)=O)C(=O)N[C@@H](CCCCN)C(=O)N[C@@H](Cc1ccccc1)C(=O)N[C@@H](CCCCN)C(=O)N[C@@H](CCCCN)C(=O)N[C@@H](CCSC)C(=O)O [GLRSKIWLWVLLMIWQESNKFKKM]
MIC [20]: 12.5 µM (≈ 37.9 µg/mL)

MIC [25]: 2 µM (≈ 4.76 µg/mL) | MIC [26]: 16 µM (≈ 38 µg/mL) | MIC [27]: 0.25 µM (≈ 0.594 µg/mL) | MIC [28]: ≥ 32 µM
Structure (SMILES): CC(C)C[C@H](NC(=O)[C@H](C)NC(=O)[C@H](C)NC(=O)[C@H](C)NC(=O)[C@H](CCCCN)NC(=O)[C@@H](N)CCCCN)C(=O)N[C@@H](C)C(=O)N[C@@H](C)C(=O)N[C@@H](C)C(=O)N[C@@H](C)C(=O)N[C@@H](C)C(=O)N[C@@H](CC(C)C)C(=O)N[C@@H](C)C(=O)N[C@@H](C)C(=O)N[C@@H](Cc1c[nH]c2ccccc12)C(=O)N[C@@H](C)C(=O)N[C@@H](C)C(=O)N[C@@H](CC(C)C)C(=O)N[C@@H](C)C(=O)N[C@@H](C)C(=O)N[C@@H](C)C(=O)N[C@@H](CCCCN)C(=O)N[C@@H](CCCCN)C(=O)N[C@@H](CCCCN)C(=O)N[C@@H](CCCCN)C(N)=O [KKAAALAAAAALAAWAALAAAKKKK]

MIC [29]: 18.1 µM (≈ 50 µg/mL) | MIC [30]: 18.1 µM (≈ 50 µg/mL) | MIC [31]: 18.1 µM (≈ 50 µg/mL) | MIC [32]: 18.1 µM (≈ 50 µg/mL) | MIC [33]: 18.1 µM (≈ 50 µg/mL) | MIC [34]: 4.35 µM (≈ 12 µg/mL) | MIC [35]: 18.1 µM (≈ 50 µg/mL) | MIC [36]: 18.1 µM (≈ 50 µg/mL) | MIC [37]: 18.1 µM (≈ 50 µg/mL) | MIC [38]: 18.1 µM (≈ 50 µg/mL) | MIC [39]: 1.09 µM (≈ 3 µg/mL) | MIC [40]: 18.1 µM (≈ 50 µg/mL)
Structure (SMILES): CC[C@H](C)[C@H](NC(=O)[C@H](CC(C)C)NC(=O)[C@H](CCCCN)NC(=O)[C@@H](NC(=O)[C@H](CC(C)C)NC(=O)[C@H](CC(=O)O)NC(=O)CNC(=O)[C@@H](NC(=O)[C@@H](NC(=O)[C@H](CO)NC(=O)[C@@H](NC(=O)[C@@H](NC(=O)[C@H](CC(=O)O)NC(=O)[C@H](C)NC(=O)[C@H](C)NC(=O)[C@@H](N)CCSC)[C@@H](C)CC)[C@@H](C)CC)[C@@H](C)O)[C@@H](C)CC)C(C)C)C(=O)N[C@H](C(=O)N[C@@H](CC(N)=O)C(=O)N[C@H](C(=O)N[C@H](C(=O)N[C@@H](CCCCN)C(=O)N[C@@H](CCCCN)C(=O)N[C@@H](Cc1ccccc1)C(=O)N[C@@H](CCC(N)=O)C(=O)N[C@@H](CCCCN)C(=O)O)C(C)C)[C@@H](C)O)[C@@H](C)CC [MAADIISTIGDLVKLIINTVKKFQK]

MIC [41]: 9.86 µM (≈ 25 µg/mL) | MIC [42]: 9.86 µM (≈ 25 µg/mL) | MIC [43]: ≥ 39.4 µM | MIC [44]: 9.86 µM (≈ 25 µg/mL) | MIC [45]: 9.86 µM (≈ 25 µg/mL) | MIC [11]: 9.86 µM (≈ 25 µg/mL) | MIC [12]: 39.4 µM (≈ 100 µg/mL) | MIC [14]: 39.4 µM (≈ 100 µg/mL)
Structure (SMILES): CC(C)C[C@H](NC(=O)[C@H](CCCN=C(N)N)NC(=O)CNC(=O)[C@H](CCC(N)=O)NC(=O)[C@@H]1CCCN1C(=O)[C@H](CC(C)C)NC(=O)[C@H](CCCCN)NC(=O)[C@H](Cc1ccccc1)NC(=O)[C@@H](NC(=O)[C@@H]1CCCN1C(=O)[C@H](CCC(N)=O)NC(=O)[C@H](CO)NC(=O)[C@H](Cc1ccccc1)NC(=O)[C@H](CCCN=C(N)N)NC(=O)[C@@H](N)CCC(N)=O)[C@@H](C)O)C(=O)N[C@H](C(=O)N[C@@H](CC(C)C)C(=O)N[C@@H](CO)C(=O)N[C@@H](CCCN=C(N)N)C(=O)N[C@@H](CCCCN)C(=O)N[C@@H](Cc1ccccc1)C(=O)O)[C@@H](C)O [QRFSQPTFKLPQGRLTLSRKF]
